From publication PMC3574224, “Na^+ Regulation in the Malaria Parasite Plasmodiumfalciparum Involves the Cation ATPase PfATP4 and Is a Target of the Spiroindolone Antimalarials” (Cell Host & Microbe, 2013)

Experiments:
[1] = tested on: P. falciparum 3D7 trophozoites; experiment: microbe, parasite or virus in culture; format: cell-based, Plasmodium falciparum; settings: for Rate of increase of [Na^+]i at maximally effective concentrations: maximally effective concentration; for IC50: Plasmodium falciparum, concentration causing [Na^+]i to increase from resting value at half the maximal rate, from fitted curves, read-out: IC50 for disruption of Na^+ regulation
Protocol: P. falciparum strains 3D7, Dd2, NITD609-R^Dd2 clone #2, Dd2^attB, and Dd2^attB CAM I398F/P990R were cultured under shaking conditions as described elsewhere ([Allen and Kirk, 2010]). Cultures were synchronized 24 hr before experimentation using 5% w/v sorbitol ([Lambros and Vanderberg, 1979]). All experiments were conducted on mature trophozoite-stage parasites (36–40 hr postinvasion) functionally isolated from their host erythrocytes by permeabilization of the erythrocyte and parasitophorous vacuole membranes by brief exposure to saponin (0.05% w/v) as described previously ([Spillman et al., 2008]).
(§1) The [Na^+]i of saponin-isolated parasites was measured at 37°C using the Na^+-sensitive dye SBFI (Molecular Probes, Invitrogen) in conjunction with a PerkinElmer LS 50B Fluorescence Spectrometer fitted with a Dual Excitation Fast Filter. Saponin-isolated parasites were loaded with SBFI by suspension (at 1.40–1.80 × 10^8 cells/mL) for 20 min at 37°C in bicarbonate-free RPMI1640 supplemented with 20 mM D-glucose, 0.2 mM hypoxanthine, 25 mM HEPES, and 25 mg/L gentamycin sulfate (pH 7.10), to which SBFI-acetoxymethyl ester (5.5 μM) and Pluronic F-127 (0.01% w/v) were added. The dye-loaded cells were washed twice (12,000 × g, 0.5 min) in bicarbonate-free RPMI then incubated for a further 20 min at 37°C to allow for complete de-esterification of the dye before being resuspended at a final cell concentration of 1.5–2.5 × 10^7 cells/mL in standard saline. The dye-loaded cells were excited at 340 nm and 380 nm with fluorescence recorded at 490 nm. Calibration of the relationship between the 340/380 nm fluorescence ratio and [Na^+]i (see Figures S1A–S1C) was carried out as described previously ([Diarra et al., 2001]; [Harootunian et al., 1989]).
The initial Na^+ influx rate (at t = 0) is a × Δ[Na^+]i^max.
(§2) Dose-response curves were obtained using the expression y = y^min + y^max/(1 + [C/IC50]^b), where y is the parameter being measured (parasite proliferation, Na^+ influx, or ATPase activity), y^min is the minimum value of y, y^max is the maximum value of y, C is the concentration of the moiety that was varied in the experiment, IC50 is the concentration at which y was reduced to 50% of y^max, and b is a fitted constant.

[2] = tested on: P. falciparum trophozoites; experiment: Cytosolic [Ca^2+]i in fura-2-loaded saponin-isolated parasites; format: cell-based, Plasmodium falciparum; settings: 2 μM; medium containing 1 μM Ca^2+
Protocol: [Ca^2+]i was measured with the Ca^2+-sensitive indicator fura-2 (Molecular Probes, Invitrogen) using a loading protocol identical to that described for SBFI. Calibration was performed as described previously ([Alleva and Kirk, 2001]).

[3] = tested on: P. falciparum trophozoites; experiment: Recovery of [Na^+]i from an imposed intracellular Na^+ load (K^+ removal and restoration); format: cell-based, Plasmodium falciparum; settings: added with 10 mM KCl
Protocol: The mechanism responsible for the increase in [Na^+]i seen upon removal of extracellular K^+ was not investigated further here. However, the phenomenon does provide a useful means of imposing an intracellular Na^+ load on the parasite and of testing the effect of inhibitors on the net efflux of Na^+ from the Na^+-loaded parasite.
as §1, with “1989]). Several inhibitors used in this study caused inner filter effects ([Gu and Kenny, 2009]; [Srinivas and Mutharasan, 1987]); in these cases calibration curves were generated with the inhibitors present.” for “1989]).”
The rate of efflux of Na^+ from the cells, following an imposed intracellular Na^+ load, was estimated by fitting the following function to the [Na^+]i traces: [Na^+]i = Δ[Na^+]i^max × e^-at + [Na^+]i^final, where Δ[Na^+]i^max is the increase in [Na^+]i above the normal resting value (following the imposition of an intracellular Na^+-load), t is the time after the commencement of efflux (on addition of extracellular K^+), a is a fitted constant, and [Na^+]i^final is the final value of [Na^+]i. The initial Na^+ efflux rate (at t = 0) is a × Δ[Na^+]i^max, and the half-time to complete recovery (t1/2) is ln(0.5)/-a.

[4] = tested on: P. falciparum parasites; experiment: Parasite proliferation, [^3H]hypoxanthine incorporation assay, 48 hr; format: cell-based; settings: Plasmodium falciparum; mean ± SEM, number of independent experiments in parentheses; read-out: IC50 for inhibition of parasite proliferation
Protocol: Parasite growth assays were performed in 96-well plates over 48 hr (commencing at the ring stage) using a standard [^3H]hypoxanthine incorporation assay ([Desjardins et al., 1979]).
as §2

[5] = tested on: P. falciparum trophozoites; experiment: Cytosolic pH (pHi) in BCECF-loaded saponin-isolated parasites; format: cell-based, Plasmodium falciparum
Protocol: pHi of saponin-isolated parasites was measured using the pH-sensitive indicator BCECF (Molecular Probes, Invitrogen) as described previously ([Saliba and Kirk, 1999]). […] Critical experiments performed using SBFI-loaded parasites were repeated with parasites loaded with BCECF.

[6] = 10 μM, on the timescale of the experiments

CC(=O)C1=C(O)[C@@H]2[C@H]3c4c[nH]c5cccc(c45)C[C@H]3C(C)(C)N2C1=O [CPA, cyclopiazonic acid, reference compound]
Effect on [Na^+]i ([1]; 40 μM): caused [Na^+]i to increase | Effect on [Ca^2+]i [2]: transient increase in [Ca^2+]i

CCN(c1nc(N)c(C(=O)NC(=N)N)nc1Cl)C(C)C [EIPA, ethylisopropylamiloride, reference compound]
Effect on resting [Na^+]i ([1]; 20 μM): Neither the Na^+/H^+ exchanger inhibitor ethylisopropylamiloride (EIPA; 20 μM) nor the Na^+/K^+-ATPase inhibitor ouabain (2 mM) had a significant effect | Effect on recovery of [Na^+]i after Na^+ load ([3]; 20 μM): unaffected

NS(=O)(=O)c1cc(C(=O)O)c(NCc2ccco2)cc1Cl [Furosemide, reference compound]
Effect on recovery of [Na^+]i after Na^+ load ([3]; 100 μM): slowed

C[C@@H]1CCc2c([nH]c3ccccc23)[C@]2(N1)C(=O)Nc1ccc(Br)cc12 [NITD138]
Effect on resting [Na^+]i ([1]; 50 nM, 3D7, standard saline): little effect | Rate of increase of [Na^+]i at maximally effective concentrations [1]: did not reach the maximum value at the highest concentration tested | IC50 [4]: 2300 ± 200 nM

C[C@H]1CCc2c([nH]c3ccccc23)[C@@]2(N1)C(=O)Nc1ccc(Br)cc12 [NITD139]
Effect on resting [Na^+]i ([1]; 50 nM, 3D7, standard saline): immediate rapid increase in [Na^+]i | IC50 ([1]; 3D7, standard saline): 16.6 ± 5.7 nM | Rate of increase of [Na^+]i at maximally effective concentrations [1]: 0.098 ± 0.007 mM/s | IC50 [4]: 4 ± 0.9 nM

C[C@@H]1Cc2c([nH]c3cc(F)c(F)cc23)[C@]2(N1)C(=O)Nc1ccc(Cl)cc12 [NITD247]
Effect on resting [Na^+]i ([1]; 50 nM, 3D7, standard saline): little effect | IC50 ([1]; 3D7, standard saline): 407 ± 117 nM | Rate of increase of [Na^+]i at maximally effective concentrations [1]: 0.125 ± 0.013 mM/s | IC50 [4]: 41.6 ± 5.8 nM

[Na+].[Na+].[Na+].[O]=[V]([O-])([O-])[O-] [Sodium orthovanadate, reference compound]
Effect on [Na^+]i ([1]; 100 μM): prolonged time-dependent increase | Rate of increase of [Na^+]i ([1]; 500 μM, n = 4): 0.13 ± 0.03 mM/s | Cytosolic pH (pHi) after addition ([5]; 100 μM, Na^+-dependent, increase from 7.28 ± 0.03, n = 6, p = 0.024): 7.36 ± 0.03

C[C@@H]1CC[C@H]2[C@@H](C)C(=O)O[C@@H]3O[C@@]4(C)CC[C@@H]1[C@]32OO4 [artemisinin, reference compound]
Effect on [Na^+]i [1, 6]: no effect

CCN(CC)CCCC(C)Nc1ccnc2cc(Cl)ccc12 (stereo not shown) [chloroquine, reference compound]
Effect on [Na^+]i [1, 6]: no effect

C/C=C/[C@H]1O[C@@](O)([C@@H](C)[C@H](O)[C@H](C)[C@H]2OC(=O)/C(OC)=C/C(C)=C/[C@@H](C)[C@@H](O)[C@@H](CC)[C@@H](O)[C@H](C)C/C(C)=C/C=C/[C@@H]2OC)C[C@@H](O[C@H]2C[C@@H](O)[C@H](OC(N)=O)[C@@H](C)O2)[C@@H]1C [concanamycin A, reference compound]
Effect on pHi of parasites after NITD246- or orthovanadate-induced alkalinisation ([5]; 75 nM, pHi decreasing to below its normal resting value): immediate reversal of the alkalinisation

C[C@@H]1O[C@@H](O[C@H]2C[C@@H](O)[C@]3(CO)[C@H]4[C@H](O)C[C@]5(C)[C@@H](C6=CC(=O)OC6)CC[C@]5(O)[C@@H]4CC[C@]3(O)C2)[C@H](O)[C@H](O)[C@H]1O [ouabain, reference compound]
Effect on resting [Na^+]i ([1]; 2 mM): nor the Na^+/K^+-ATPase inhibitor ouabain (2 mM) had a significant effect

C/C=C(/C)C(=O)O[C@H]1C(C)=C2[C@H]([C@@H]1OC(=O)CCCCCCC)[C@@](C)(OC(C)=O)C[C@H](OC(=O)CCC)[C@@]1(O)[C@H]2OC(=O)[C@@]1(C)O [thapsigargin, reference compound]
Effect on [Na^+]i ([1]; 2 μM): little effect

Gramicidin [reference compound]
Effect on [Na^+]i ([1]; 5 μM, [Na^+]o 125 mM): rapid increase in [Na^+]i
